Columns and labels:
[1] = UV-visible absorption spectroscopy; assay type: physicochemical; details: for absorption wavelength: UV-visible absorption spectrum; for Maximum Absorption Wavelength: methanol
Text: (§1) The results of the thermal gravametric analysis and the ultraviolent-visible absorption spectroscopy of the optical recording medium dyes obtained in the above experiment 1 to experiment 8 are summarized in Table 1. The thermal gravametric analysis and the ultraviolent-visible absorption spectroscopy detect, respectively, the thermal breakdown temperature (the temperature of a 5% thermal weight loss) and the optical property (the largest absorption wavelength, absorption coefficient of the solution). […] Further, the thermal breakdown temperatures are above 250 degrees Celsius. Accordingly, the optical recording medium dyes of the present invention comprises a broad wavelength range and has favorable thermal stability and solubility.

[2] = thermal gravimetric analysis; assay type: physicochemical; details: for Thermal Breakdown Temperature: temperature of a 5% thermal weight loss; for temperature of sudden weight loss (thermal breakdown temperature): thermal gravimetric analysis
Text: as §1

Row | SMILES | absorption wavelength [1] [nm] | Maximum Absorption Wavelength [1] [nm] | Thermal Breakdown Temperature [2] [°C] | temperature of sudden weight loss (thermal breakdown temperature) [2]
1 | CCCCN1C(=CC=Cc2ccc3ccccc3[n+]2CCCC)C(C)(C)c2cc(Cl)ccc21 [Experiment 1] | 561.8 | 561.8 | 280.2 | about 280.2 degrees Celsius
2 | CCCC[n+]1c(C=CC=C2N(C)c3ccc([N+](=O)[O-])cc3C2(C)C)ccc2ccccc21 [Experiment 4] | 548.2 | 548.2 | 309.5 | about 309.5 degrees Celsius
3 | CCCCN1C(=CC=Cc2cc[n+](CC)c3ccccc23)C(C)(C)c2c1ccc1ccccc21 [Experiment 7] | 625 | 625.0 | 270.7 | about 270.7 degrees Celsius
4 | CCCCN1C(=CC=Cc2ccc3ccccc3[n+]2CCCC)C(C)(C)c2c1ccc1ccccc21 [Experiment 2] | 583.0 | 583.0 | 268.6 | about 268.6 degrees Celsius
5 | CCCCN1C(=CC=Cc2ccc3ccccc3[n+]2CCCC)C(C)(C)c2c1ccc1ccccc21 [Experiment 3] | 583.0 | 583.0 | 274.2 | about 274.2 degrees Celsius
6 | CC[n+]1ccc(C=CC=C2N(C)c3ccc([N+](=O)[O-])cc3C2(C)C)c2ccccc21 [Experiment 6] | 570.0 | 570.0 | 302.7 | about 302.7 degrees Celsius
7 | CCCCN1C(=CC=Cc2cc[n+](CC)c3ccccc23)C(C)(C)c2cc(Cl)ccc21 [Experiment 5] | 598.4 | 598.4 | 266.3 | about 266.3 degrees Celsius
